Converted amounts (≈) assume the structure as drawn.
Tests used:
[1] = system: T1, E. faecalis ATCC 29212 (EF); test: microbe, parasite or virus in culture; parameters: broth microdilution MIC in BHI, Alamar Blue read-out, 37 °C; details: Enterococcus faecalis, ATCC29212, 24 h
T1 construct: ATCC 29212
Method: (§1) The inhibition activity against enterococci was evaluated by the microtitration broth method according to the Clinical and Laboratory Standards Institute with some modifications. The compounds were dissolved in DMSO and serially diluted in Brain Hearth Infusion (BHI) to reach concentrations 256–2 µg/mL. […] The experiment was repeated at least three times. All the investigated compounds were tested on their anti-staphylococcal activity against three clinical isolates of methicillin-resistant Staphylococcus aureus (MRSA) and S. aureus ATCC 29213 as the reference and quality control strain.

[2] = system: T2, Enterococcus faecalis VRE 368; test: organism not typed; parameters: broth microdilution MIC in BHI, Alamar Blue read-out, 37 °C; details: 24 h
T2 construct: VRE 368 (vanA clinical isolate)
Method: as §1

[3] = system: T3, Enterococcus faecalis VRE 342 B; test: organism not typed; parameters: broth microdilution MIC in BHI, Alamar Blue read-out, 37 °C; details: 24 h
T3 construct: VRE 342 B (vanA clinical isolate)
Method: as §1

[4] = system: T4, Enterococcus faecalis VRE 725 B; test: organism not typed; parameters: broth microdilution MIC in BHI, Alamar Blue read-out, 37 °C; details: 24 h
T4 construct: VRE 725B (vanA clinical isolate)
Method: as §1, with “strain. […] All the compounds were tested against Enterococcus faecalis ATCC 29212 as the reference strain and three isolates from American crows of vanA-carrying vancomycin-resistant E. faecalis (VRE), and the activities, expressed as minimum inhibitory concentrations (MICs), are listed in Table 3.” for “strain.”

[5] = molecular target: T5, hCA I (Homo sapiens, UniProt P00915); test: stopped-flow CO2 hydration assay; assay type: biochemical
T5 construct: gene CA1; recombinant
T5 sequence (P00915 2-261): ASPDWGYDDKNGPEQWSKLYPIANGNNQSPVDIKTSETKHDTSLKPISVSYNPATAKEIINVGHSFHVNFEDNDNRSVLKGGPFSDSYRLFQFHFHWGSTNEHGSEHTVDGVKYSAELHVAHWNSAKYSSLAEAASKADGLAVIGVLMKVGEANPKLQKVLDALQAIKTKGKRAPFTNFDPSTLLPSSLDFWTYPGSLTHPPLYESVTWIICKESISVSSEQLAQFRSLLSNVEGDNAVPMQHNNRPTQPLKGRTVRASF
Outline: (§2)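 Recombinant human carbonic anhydrase CO2 hydration was followed by stopped-flow for 10–100 s with 0.2 mM phenol red (557 nm), 20 mM Hepes pH 7.5, 20 mM Na2SO4 and 1.7–17 mM CO2. Enzyme and inhibitor (diluted to 0.005 nM in buffer) were preincubated 15 min at room temperature. Initial rates used at least six traces, with uncatalysed rates subtracted. Ki was fitted by non-linear least squares with Cheng–Prusoff equation, averaged over three or more determinations.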

[6] = molecular target: T6, hCA XII (Homo sapiens, UniProt O43570); test: stopped-flow CO2 hydration assay; assay type: biochemical
T6 construct: gene CA12; recombinant
T6 sequence (O43570 25-354): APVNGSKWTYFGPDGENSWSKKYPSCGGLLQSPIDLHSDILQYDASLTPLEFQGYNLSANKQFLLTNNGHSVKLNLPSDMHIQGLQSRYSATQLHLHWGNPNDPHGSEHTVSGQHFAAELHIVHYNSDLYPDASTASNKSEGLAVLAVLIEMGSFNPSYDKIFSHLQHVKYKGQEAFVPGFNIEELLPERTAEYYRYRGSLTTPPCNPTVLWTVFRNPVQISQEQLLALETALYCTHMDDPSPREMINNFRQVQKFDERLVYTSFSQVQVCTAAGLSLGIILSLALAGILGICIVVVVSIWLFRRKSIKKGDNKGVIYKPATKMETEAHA
Outline: as §2

[7] = molecular target: T7, hCA IX (Homo sapiens, UniProt Q16790); test: stopped-flow CO2 hydration assay; assay type: biochemical
T7 construct: gene CA9; recombinant
Outline: as §2

[8] = molecular target: T8, hCA II (Homo sapiens, UniProt P00918); test: stopped-flow CO2 hydration assay; assay type: biochemical
T8 construct: gene CA2; recombinant
Outline: as §2

[9] = molecular target: T9, hCA VII (Homo sapiens, UniProt P43166); test: stopped-flow CO2 hydration assay; assay type: biochemical
T9 construct: gene CA7; recombinant
T9 sequence (P43166 whole entry): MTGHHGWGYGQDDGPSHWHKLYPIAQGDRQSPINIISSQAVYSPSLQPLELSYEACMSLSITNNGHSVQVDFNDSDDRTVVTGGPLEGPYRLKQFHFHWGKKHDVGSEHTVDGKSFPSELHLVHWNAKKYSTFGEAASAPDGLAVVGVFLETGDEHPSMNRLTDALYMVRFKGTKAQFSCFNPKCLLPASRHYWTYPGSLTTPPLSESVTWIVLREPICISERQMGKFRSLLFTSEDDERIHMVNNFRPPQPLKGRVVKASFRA
Outline: as §2

NS(=O)(=O)c1ccc(CNc2nc(Cl)nc(NCc3ccc(S(N)(=O)=O)cc3)n2)cc1 [7 ^a] was tested, and the MIC [1] was 16.5 µM (≈ 7.98 µg/mL), the MIC [2] was 33 µM (≈ 16 µg/mL) and the MIC [3] was 66 µM (≈ 31.9 µg/mL). For the same molecule, the MIC [4] was 131 µM (≈ 63.4 µg/mL).

CC1(C)S[C@@H]2[C@H](NC(=O)[C@H](N)c3ccccc3)C(=O)N2[C@H]1C(=O)O [ampicillin] was tested, and the “MIC [µM] / VRE 725 B” value ([4]; inhibitor) was 5.72 µM (≈ 2 µg/mL).

NS(=O)(=O)c1ccc(Nc2nc(NCCCO)nc(Nc3ccc(/C=C/c4cccc(O)c4)cc3)n2)cc1 [compound 4, (E)-4-({4-[(3-Hydroxypropyl)amino]-6-{[4-(3-hydroxystyryl)phenyl]amino}-1,3,5-triazin-2-yl}amino)benzenesulfonamide] showed a Ki [5] of 7520 nM, a Ki [6] of 65.8 nM and a Ki [7] of 27.5 nM. It also gave a Ki [8] of 3640 nM.

For NS(=O)(=O)c1ccc(CNc2nc(Cl)nc(NCCCO)n2)cc1 [compound 5, 5], the Ki [9] was 332 nM.

Molecule NS(=O)(=O)c1ccc(CNc2nc(NCCCO)nc(Nc3ccc(/C=C/c4cccc(O)c4)cc3)n2)cc1 [compound 17, 17] has a Ki [5] of 358 nM, a Ki [6] of 493 nM and a Ki [7] of 22.2 nM. The Ki [8] was 46.8 nM, the MIC [1] was greater than 467 µM and the MIC [2] was 467 µM (≈ 256 µg/mL). The MIC [3] was greater than 467 µM and the MIC [4] was greater than 467 µM.

NS(=O)(=O)c1ccc(CCNc2nc(Cl)nc(NCCCO)n2)cc1 [compound 18, 18] gave a Ki [9] of 75.7 nM, an MIC [1] of 330 µM (≈ 128 µg/mL) and an MIC [2] of 661 µM (≈ 256 µg/mL). It also gave an MIC [3] of 330 µM (≈ 128 µg/mL) and an MIC [4] of 661 µM (≈ 256 µg/mL).

In the case of NS(=O)(=O)c1ccc(CCNc2nc(NCCCO)nc(Nc3ccc(/C=C/c4ccccc4)cc3)n2)cc1 [compound 30, (E)-4-[2-({4-[(3-Hydroxypropyl)amino]-6-[(4-styrylphenyl)amino]-1,3,5-triazin-2-yl}amino)ethyl]benzenesulfonamide], the Ki [5] is reported as 5700 nM, the Ki [6] is reported as 7.6 nM and the Ki [7] is reported as 12.1 nM. It also gave a Ki [8] of 5130 nM, an MIC [1] greater than 469 µM and an MIC [2] greater than 469 µM. It also gave an MIC [3] greater than 469 µM and an MIC [4] greater than 469 µM.

Molecule NS(=O)(=O)c1ccc(CCNc2nc(NCC(O)CO)nc(Nc3ccc(/C=C/c4ccccc4)cc3)n2)cc1 (centres unmarked) [compound 31, (E)-4-{2-[(4-[(2,3-Dihydroxypropyl)amino]-6-[(4-styrylphenyl)amino]-1,3,5-triazin-2-yl)amino]ethyl}benzenesulfonamide] has a Ki [5] of 36.9 nM, a Ki [6] of 4.4 nM and a Ki [7] of 248 nM. It also gave a Ki [8] of 335 nM, an MIC [1] greater than 455 µM and an MIC [2] greater than 455 µM. For the same molecule, the MIC [3] was greater than 455 µM and the MIC [4] was greater than 455 µM.

Work on NS(=O)(=O)c1ccc(CCNc2nc(Nc3ccc(O)cc3)nc(Nc3ccc(/C=C/c4ccccc4)cc3)n2)cc1 [compound 32, (E)-4-{2-[(4-[(4-Hydroxyphenyl)amino]-6-[(4-styrylphenyl)amino]-1,3,5-triazin-2-yl)amino]ethyl}benzenesulfonamide] yielded a Ki [5] of 90.6 nM, a Ki [6] of 5.9 nM and a Ki [7] of 2470 nM. It also gave a Ki [8] of 7490 nM, an MIC [1] of 13.8 µM (≈ 8 µg/mL) and an MIC [2] of 27.6 µM (≈ 16 µg/mL). For the same molecule, the MIC [3] was 27.6 µM (≈ 16 µg/mL) and the MIC [4] was 55.2 µM (≈ 32 µg/mL).

Work on NS(=O)(=O)c1ccc(CCNc2nc(NCc3ccc(S(N)(=O)=O)cc3)nc(Nc3ccc(/C=C/c4ccccc4)cc3)n2)cc1 [compound 33] yielded a Ki [5] of 48 nM, a Ki [6] of 6.2 nM and a Ki [7] of 1970 nM. It also gave a Ki [8] of 57.9 nM, an MIC [1] of 97.4 µM (≈ 64 µg/mL) and an MIC [2] of 389 µM (≈ 255 µg/mL). For the same molecule, the MIC [3] was 194 µM (≈ 127 µg/mL) and the MIC [4] was 194 µM (≈ 127 µg/mL).

With NS(=O)(=O)c1ccc(CCNc2nc(NCC(O)CO)nc(Nc3ccc(/C=C/c4ccccc4O)cc3)n2)cc1 (centres unmarked) [compound 34, (E)-4-{2-[(4-[(2,3-Dihydroxypropyl)amino]-6-{[4-(2-hydroxystyryl)phenyl]amino}-1,3,5-triazin-2-yl)amino]ethyl}benzenesulfonamide] the Ki [5] was 1670 nM, the Ki [6] was 8.5 nM and the Ki [7] was 2710 nM. The Ki [8] was 5630 nM, the MIC [1] was greater than 443 µM and the MIC [2] was greater than 443 µM. It also gave an MIC [3] greater than 443 µM and an MIC [4] greater than 443 µM.

NS(=O)(=O)c1ccc(CCNc2nc(Nc3ccc(O)cc3)nc(Nc3ccc(/C=C/c4ccccc4O)cc3)n2)cc1 [compound 35, 35] showed a Ki [5] of 3940 nM, a Ki [6] of 37.1 nM and a Ki [7] of 238 nM. The Ki [8] was 5470 nM, the MIC [1] was greater than 429 µM and the MIC [2] was greater than 429 µM. For the same molecule, the MIC [3] was greater than 429 µM and the MIC [4] was greater than 429 µM.

NS(=O)(=O)c1ccc(CCNc2nc(NCc3ccc(S(N)(=O)=O)cc3)nc(Nc3ccc(/C=C/c4ccccc4O)cc3)n2)cc1 [compound 36, (E)-4-{2-[(4-{[4-(2-Hydroxystyryl)phenyl]amino}-6-[(4-sulfamoylbenzyl)amino]-1,3,5-triazin-2-yl)amino]ethyl}benzenesulfonamide] gave a Ki [5] of 448 nM, a Ki [6] of 8.3 nM and a Ki [7] of 2720 nM. For the same molecule, the Ki [8] was 82 nM, the MIC [1] was greater than 380 µM and the MIC [2] was greater than 380 µM. It also gave an MIC [3] greater than 380 µM and an MIC [4] greater than 380 µM.

NS(=O)(=O)c1ccc(CCNc2nc(NCCCO)nc(Nc3ccc(/C=C/c4cccc(O)c4)cc3)n2)cc1 [compound 37, 37] was tested, and the Ki [5] was 675 nM, the Ki [6] was 601 nM and the Ki [7] was 26.4 nM. The Ki [8] was 73.5 nM, the MIC [1] was greater than 455 µM and the MIC [2] was greater than 455 µM. It also gave an MIC [3] greater than 455 µM and an MIC [4] greater than 455 µM.

Work on NS(=O)(=O)c1ccc(CCNc2nc(NCC(O)CO)nc(Nc3ccc(/C=C/c4cccc(O)c4)cc3)n2)cc1 (centres unmarked) [compound 38, (E)-4-{2-[(4-[(2,3-Dihydroxypropyl)amino]-6-{[4-(3-hydroxystyryl)phenyl]amino}-1,3,5-triazin-2-yl)amino]ethyl}benzenesulfonamide] yielded a Ki [5] of 6730 nM, a Ki [6] of 84.5 nM and a Ki [7] of 17.3 nM. It also gave a Ki [8] of 4440 nM, an MIC [1] greater than 443 µM and an MIC [2] greater than 443 µM. The MIC [3] was greater than 443 µM and the MIC [4] was greater than 443 µM.

With NS(=O)(=O)c1ccc(CCNc2nc(Nc3ccc(O)cc3)nc(Nc3ccc(/C=C/c4cccc(O)c4)cc3)n2)cc1 [compound 39, 39] the Ki [5] was 742 nM, the Ki [6] was 68.5 nM and the Ki [7] was 876 nM. It also gave a Ki [8] of 154 nM, an MIC [1] greater than 429 µM and an MIC [2] greater than 429 µM. It also gave an MIC [3] greater than 429 µM and an MIC [4] greater than 429 µM.

NS(=O)(=O)c1ccc(CCNc2nc(NCc3ccc(S(N)(=O)=O)cc3)nc(Nc3ccc(/C=C/c4cccc(O)c4)cc3)n2)cc1 [compound 40, (E)-4-{2-[(4-{[4-(3-Hydroxystyryl)phenyl]amino}-6-[(4-sulfamoylbenzyl)amino]-1,3,5-triazin-2-yl)amino]ethyl}benzenesulfonamide] was tested, and the Ki [5] was 48.8 nM, the Ki [6] was 60.5 nM and the Ki [7] was 20.3 nM. The Ki [8] was 18.9 nM, the MIC [1] was 190 µM (≈ 128 µg/mL) and the MIC [2] was 380 µM (≈ 256 µg/mL). The MIC [3] was 190 µM (≈ 128 µg/mL) and the MIC [4] was 190 µM (≈ 128 µg/mL).

NS(=O)(=O)c1ccc(CCNc2nc(NCC(O)CO)nc(Nc3ccc(/C=C/c4ccc(O)cc4)cc3)n2)cc1 (centres unmarked) [compound 42, (E)-4-{2-[(4-[(2,3-Dihydroxypropyl)amino]-6-{[4-(4-hydroxystyryl)phenyl]amino}-1,3,5-triazin-2-yl)amino]ethyl}benzenesulfonamide] was tested, and the Ki [5] was 43.5 nM, the Ki [6] was 9.7 nM and the Ki [7] was 258 nM. The Ki [8] was 96.3 nM, the MIC [1] was 55.4 µM (≈ 32 µg/mL) and the MIC [2] was 221 µM (≈ 128 µg/mL). It also gave an MIC [3] of 110 µM (≈ 63.5 µg/mL) and an MIC [4] of 221 µM (≈ 128 µg/mL).

CN[C@H](CC(C)C)C(=O)N[C@H]1C(=O)N[C@@H](CC(N)=O)C(=O)N[C@H]2C(=O)N[C@H]3C(=O)N[C@H](C(=O)N[C@H](C(=O)O)c4cc(O)cc(O)c4-c4cc3ccc4O)[C@H](O)c3ccc(c(Cl)c3)Oc3cc2cc(c3O[C@@H]2O[C@H](CO)[C@@H](O)[C@H](O)[C@H]2O[C@H]2C[C@](C)(N)[C@H](O)[C@H](C)O2)Oc2ccc(cc2Cl)[C@H]1O [vancomycin] gave an MIC [2] of 353 µM (≈ 512 µg/mL), an MIC [3] of 353 µM (≈ 512 µg/mL) and an MIC [4] of 706 µM (≈ 1020 µg/mL).
